Source: US9738634B2, “Heterocyclic amide compound and herbicide” (SYNGENTA PARTICIPATIONS AG, priority 2013, dated 2017)

How the values were obtained:
Format in all cases: in vivo
Settings in all cases: treatment dosage 315 g/ha
beet [1] = assay: Test Example 3: soil treatment, effect on crop; f: beet
In short: (§1)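 Crop and weed responses were judged three weeks after a uniform surface spray of the water-diluted emulsion at the given g/ha rate. Seeds sat beneath about 1.5 cm of sterilized diluvial soil, and boxes stood in a greenhouse at 25 to 30° C.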

transplanted rice = assay: Test Example 1: preemergent weed treatment in the submerged state, effect on crop; a: transplanted rice
In short: (§2)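 Emulsion diluted with water to the specified per-hectare dosage is applied onto flood water (4 cm) over alluvial soil on the sowing day, with barnyard grass, bulrush and pondweed seeded and rice (2.5-leaf) transplanted; plants grow at 25–30 °C and are rated at 3 weeks.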

common wind-grass [2] = assay: Test Example 3: weedkilling efficacy through soil treatment; J: common wind-grass
In short: as §1

Italian ryegrass [3] = assay: Test Example 4: weedkilling efficacy by foliar treatment; I: Italian ryegrass
In short: (§3)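 Seeds are spot-sown into sterilized diluvial soil and covered with about 1.5 cm of soil. After 14 days' greenhouse growth at 25 to 30° C, plants are sprayed on stems and leaves with diluted emulsion at the stated g/ha rate, then scored at 3 weeks.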

crabgrass [4] = assay: Test Example 4: weedkilling efficacy by foliar treatment; D: crabgrass
In short: as §3

chickweed [5] = assay: Test Example 4: weedkilling efficacy by foliar treatment; N: chickweed
In short: as §3

soybean [6] = assay: Test Example 4: foliar treatment, effect on crop; d: soybean
In short: as §3

bulrush [7] = assay: Test Example 2: weedkilling efficacy, growth period weed treatment in the submerged state; B: bulrush
In short: (§4)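 First, alluvial soil in pots is flooded to 4 cm and mixed seed is sown. Next, plants grow in a greenhouse at 25 to 30° C until the 1-2 leaf stage. Then diluted emulsion is applied onto the water surface at the given g/ha rate, and injury is assessed after 3 weeks.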

catchweed = assay: Test Example 4: weedkilling efficacy by foliar treatment; O: catchweed
In short: as §3

bulrush [8] = assay: Test Example 1: weedkilling efficacy, preemergent weed treatment in the submerged state; B: bulrush
In short: as §2

wheat [9] = assay: Test Example 3: soil treatment, effect on crop; e: wheat
In short: as §1

wheat [10] = assay: Test Example 4: foliar treatment, effect on crop; e: wheat
In short: as §3

oval-leafed pondweed [11] = assay: Test Example 1: weedkilling efficacy, preemergent weed treatment in the submerged state; C: oval-leafed pondweed
In short: as §2

barnyard grass [12] = assay: Test Example 1: weedkilling efficacy, preemergent weed treatment in the submerged state; A: barnyard grass
In short: as §2

green foxtail [13] = assay: Test Example 3: weedkilling efficacy through soil treatment; E: green foxtail
In short: as §1

black-grass [14] = assay: Test Example 3: weedkilling efficacy through soil treatment; H: black-grass
In short: as §1

directly sown rice [15] = assay: Test Example 4: foliar treatment, effect on crop; b: directly sown rice
In short: as §3

redroot pigweed [16] = assay: Test Example 3: weedkilling efficacy through soil treatment; L: redroot pigweed
In short: as §1

corn [17] = assay: Test Example 4: foliar treatment, effect on crop; c: corn
In short: as §3

wild oat [18] = assay: Test Example 4: weedkilling efficacy by foliar treatment; G: wild oat
In short: as §3

black-grass [19] = assay: Test Example 4: weedkilling efficacy by foliar treatment; H: black-grass
In short: as §3

crabgrass [20] = assay: Test Example 3: weedkilling efficacy through soil treatment; D: crabgrass
In short: as §1

rapeseed [21] = assay: Test Example 3: soil treatment, effect on crop; g: rapeseed
In short: as §1

rapeseed [22] = assay: Test Example 4: foliar treatment, effect on crop; g: rapeseed
In short: as §3

beet [23] = assay: Test Example 4: foliar treatment, effect on crop; f: beet
In short: as §3

directly sown rice [24] = assay: Test Example 3: soil treatment, effect on crop; b: directly sown rice
In short: as §1

Indian mallow [25] = assay: Test Example 3: weedkilling efficacy through soil treatment; K: Indian mallow
In short: as §1

chickweed [26] = assay: Test Example 3: weedkilling efficacy through soil treatment; N: chickweed
In short: as §1

corn [27] = assay: Test Example 3: soil treatment, effect on crop; c: corn
In short: as §1

redroot pigweed [28] = assay: Test Example 4: weedkilling efficacy by foliar treatment; L: redroot pigweed
In short: as §3

oval-leafed pondweed [29] = assay: Test Example 2: weedkilling efficacy, growth period weed treatment in the submerged state; C: oval-leafed pondweed
In short: as §4

common wind-grass [30] = assay: Test Example 4: weedkilling efficacy by foliar treatment; J: common wind-grass
In short: as §3

birds-eye speedwell [31] = assay: Test Example 3: weedkilling efficacy through soil treatment; p: birds-eye speedwell
In short: as §1

birds-eye speedwell [32] = assay: Test Example 4: weedkilling efficacy by foliar treatment; p: birds-eye speedwell
In short: as §3

green foxtail [33] = assay: Test Example 4: weedkilling efficacy by foliar treatment; E: green foxtail
In short: as §3

barnyard grass [34] = assay: Test Example 2: weedkilling efficacy, growth period weed treatment in the submerged state; A: barnyard grass
In short: as §4

Indian mallow [35] = assay: Test Example 4: weedkilling efficacy by foliar treatment; K: Indian mallow
In short: as §3

wild oat [36] = assay: Test Example 3: weedkilling efficacy through soil treatment; G: wild oat
In short: as §1

barnyard grass [37] = assay: Test Example 3: weedkilling efficacy through soil treatment; F: barnyard grass
In short: as §1

Italian ryegrass [38] = assay: Test Example 3: weedkilling efficacy through soil treatment; I: Italian ryegrass
In short: as §1

soybean [39] = assay: Test Example 3: soil treatment, effect on crop; d: soybean
In short: as §1

barnyard grass [40] = assay: Test Example 4: weedkilling efficacy by foliar treatment; F: barnyard grass
In short: as §3

CC1=C(c2ccccc2)C(=O)N(C(C)(C)C(=O)Nc2cccc(C(F)F)n2)CO1 [B-2-55]
f (beet) effect on crop grade (beet [1]): 3 (weed kill ratio 40% or more, less than 70%) | a (transplanted rice) effect on crop grade (transplanted rice): 3 (weed kill ratio 40% or more, less than 70%) | J (common wind-grass) weedkilling efficacy grade (common wind-grass [2]): 5 (weed kill ratio 90% or more, (practically complete withering)) | I (Italian ryegrass) weedkilling efficacy grade (Italian ryegrass [3]): 4 (weed kill ratio 70% or more, less than 90%) | D (crabgrass) weedkilling efficacy grade (crabgrass [4]): 5 (weed kill ratio 90% or more, (practically complete withering)) | N (chickweed) weedkilling efficacy grade (chickweed [5]): 4 (weed kill ratio 70% or more, less than 90%) | d (soybean) effect on crop grade (soybean [6]): 4 (weed kill ratio 70% or more, less than 90%) | B (bulrush) weedkilling efficacy grade (bulrush [7]): 5 (weed kill ratio 90% or more, (practically complete withering)) | O (catchweed) weedkilling efficacy grade (catchweed): 5 (weed kill ratio 90% or more, (practically complete withering)) | B (bulrush) weedkilling efficacy grade (bulrush [8]): 5 (weed kill ratio 90% or more, (practically complete withering)) | e (wheat) effect on crop grade (wheat [9]): 0 (weed kill ratio 5% or less (practically no effect)) | e (wheat) effect on crop grade (wheat [10]): 2 (weed kill ratio 20% or more, less than 40%) | C (oval-leafed pondweed) weedkilling efficacy grade (oval-leafed pondweed [11]): 5 (weed kill ratio 90% or more, (practically complete withering)) | A (barnyard grass) weedkilling efficacy grade (barnyard grass [12]): 5 (weed kill ratio 90% or more, (practically complete withering)) | E (green foxtail) weedkilling efficacy grade (green foxtail [13]): 5 (weed kill ratio 90% or more, (practically complete withering)) | H (black-grass) weedkilling efficacy grade (black-grass [14]): 5 (weed kill ratio 90% or more, (practically complete withering)) | b (directly sown rice) effect on crop grade (directly sown rice [15]): 5 (weed kill ratio 90% or more, (practically complete withering)) | L (redroot pigweed) weedkilling efficacy grade (redroot pigweed [16]): 4 (weed kill ratio 70% or more, less than 90%) | c (corn) effect on crop grade (corn [17]): 4 (weed kill ratio 70% or more, less than 90%) | G (wild oat) weedkilling efficacy grade (wild oat [18]): 3 (weed kill ratio 40% or more, less than 70%) | H (black-grass) weedkilling efficacy grade (black-grass [19]): 5 (weed kill ratio 90% or more, (practically complete withering)) | D (crabgrass) weedkilling efficacy grade (crabgrass [20]): 5 (weed kill ratio 90% or more, (practically complete withering)) | g (rapeseed) effect on crop grade (rapeseed [21]): 2 (weed kill ratio 20% or more, less than 40%) | g (rapeseed) effect on crop grade (rapeseed [22]): 4 (weed kill ratio 70% or more, less than 90%) | f (beet) effect on crop grade (beet [23]): 4 (weed kill ratio 70% or more, less than 90%) | b (directly sown rice) effect on crop grade (directly sown rice [24]): 4 (weed kill ratio 70% or more, less than 90%) | K (Indian mallow) weedkilling efficacy grade (Indian mallow [25]): 1 (weed kill ratio 5% or more, less than 20%) | N (chickweed) weedkilling efficacy grade (chickweed [26]): 4 (weed kill ratio 70% or more, less than 90%) | c (corn) effect on crop grade (corn [27]): 0 (weed kill ratio 5% or less (practically no effect)) | L (redroot pigweed) weedkilling efficacy grade (redroot pigweed [28]): 4 (weed kill ratio 70% or more, less than 90%) | C (oval-leafed pondweed) weedkilling efficacy grade (oval-leafed pondweed [29]): 5 (weed kill ratio 90% or more, (practically complete withering)) | J (common wind-grass) weedkilling efficacy grade (common wind-grass [30]): 5 (weed kill ratio 90% or more, (practically complete withering)) | P (birds-eye speedwell) weedkilling efficacy grade (birds-eye speedwell [31]): 5 (weed kill ratio 90% or more, (practically complete withering)) | P (birds-eye speedwell) weedkilling efficacy grade (birds-eye speedwell [32]): 5 (weed kill ratio 90% or more, (practically complete withering)) | E (green foxtail) weedkilling efficacy grade (green foxtail [33]): 5 (weed kill ratio 90% or more, (practically complete withering)) | A (barnyard grass) weedkilling efficacy grade (barnyard grass [34]): 5 (weed kill ratio 90% or more, (practically complete withering)) | K (Indian mallow) weedkilling efficacy grade (Indian mallow [35]): 4 (weed kill ratio 70% or more, less than 90%) | G (wild oat) weedkilling efficacy grade (wild oat [36]): 4 (weed kill ratio 70% or more, less than 90%) | F (barnyard grass) weedkilling efficacy grade (barnyard grass [37]): 5 (weed kill ratio 90% or more, (practically complete withering)) | I (Italian ryegrass) weedkilling efficacy grade (Italian ryegrass [38]): 5 (weed kill ratio 90% or more, (practically complete withering)) | d (soybean) effect on crop grade (soybean [39]): 3 (weed kill ratio 40% or more, less than 70%) | F (barnyard grass) weedkilling efficacy grade (barnyard grass [40]): 5 (weed kill ratio 90% or more, (practically complete withering))
